Tested on: anesthetized rats
Test: Blood pressure and left ventricular function of anesthetized rats
Type: in vivo, rat
Parameters: contractive pressure, change ratio: unit not given here
Method: All data were input into PowerLab/8Sp data acquisition and processing system via RM-6000 multi-channel polygraph, and recorded, analyzed and processed by PowerLab/8Sp.
The abdomen was opened 1.5 cm below xiphoid bone to isolate duodenum, a small incision was formed on the duodenum away from blood vessels by ophthalmic scissors, a catheter was inserted and the incision was fixed by suture for administration. After the end of operation and a further waiting period of 30 min, normal data were recorded once the indexes to be monitored were stable.
Test drugs were duodenally administered via the catheter, and the indexes were monitored 5, 15, 30, 60, 90 and 120 min after the administration. The change ratios of the indexes were calculated in accordance with the following formula, and were used for statistic analysis among groups.

[1] = 4.5 mg/kg duodenal, 5 min after administration
[2] = 4.5 mg/kg duodenal, 15 min after administration
[3] = 4.5 mg/kg duodenal, 30 min after administration
[4] = 4.5 mg/kg duodenal, 60 min after administration
[5] = 4.5 mg/kg duodenal, 90 min after administration
[6] = 4.5 mg/kg duodenal, 120 min after administration
[7] = 4.5 mg/kg duodenal, before administration
[8] = 9 mg/kg duodenal, 5 min after administration
[9] = 9 mg/kg duodenal, 15 min after administration
[10] = 9 mg/kg duodenal, 30 min after administration
[11] = 9 mg/kg duodenal, 60 min after administration

SMILES: CC1(C)C2CCC1(C)C(OC(=O)C(O)Cc1ccc(O)c(O)c1)C2 (stereo not drawn) [bornyl salvianate ester, bornyl β-(3,4-dihydroxylphenyl)-α-hydroxylpropionate ester]
- mean arterial pressure, systolic pressure and diastolic pressure (in words) (4.5 mg/kg): exhibited no significant change
- change-rate of left intraventricular pressure MAX [1]: 5429.3 ± 1279.7 mmHg/s
- change-rate of left intraventricular pressure MAX, change ratio [1]: 0.4 ± 11.0
- change-rate of left intraventricular pressure, -MAX [1]: −4152.9 ± 764.8 mm/Hg/s
- change-rate of left intraventricular pressure, -MAX, change ratio [1]: −2.2 ± 8.2
- contractive pressure [1]: 126.54 ± 25.94 mmHg
- contractive pressure, change ratio [1]: −1.96 ± 11.16
- diastolic pressure [1]: 68.68 ± 15.82 mmHg
- diastolic pressure, change ratio [1]: −0.08 ± 12.81
- heart rate [1]: 337.41 ± 47.67 beat/min
- heart rate, change ratio [1]: 2.49 ± 7.18
- left intraventricular pressure [1]: 128.67 ± 18.24 mmHg
- left intraventricular pressure, change ratio [1]: 0.38 ± 6.72
- mean arterial pressure [1]: 87.97 ± 18.89 mmHg
- mean arterial pressure, change ratio [1]: −1.01 ± 11.95
- change-rate of left intraventricular pressure MAX [2]: 5435.9 ± 1216.6 mmHg/s
- change-rate of left intraventricular pressure MAX, change ratio [2]: 0.9 ± 11.4
- change-rate of left intraventricular pressure, -MAX [2]: −4141.1 ± 755.6 mm/Hg/s
- change-rate of left intraventricular pressure, -MAX, change ratio [2]: −2.4 ± 9.1
- contractive pressure [2]: 128.80 ± 24.39 mmHg
- contractive pressure, change ratio [2]: −0.05 ± 10.13
- diastolic pressure [2]: 70.87 ± 15.08 mmHg
- diastolic pressure, change ratio [2]: 3.38 ± 12.17
- heart rate [2]: 347.56 ± 47.18 beat/min
- heart rate, change ratio [2]: 5.67 ± 7.58
- left intraventricular pressure [2]: 130.13 ± 18.12 mmHg
- left intraventricular pressure, change ratio [2]: 1.51 ± 6.25
- mean arterial pressure [2]: 90.18 ± 17.91 mmHg
- mean arterial pressure, change ratio [2]: 1.66 ± 11.07
- change-rate of left intraventricular pressure MAX [3]: 5408.8 ± 1352.2 mmHg/s
- change-rate of left intraventricular pressure MAX, change ratio [3]: 0.1 ± 13.5
- change-rate of left intraventricular pressure, -MAX [3]: −4090.5 ± 704.6 mm/Hg/s
- change-rate of left intraventricular pressure, -MAX, change ratio [3]: −3.6 ± 6.5
- contractive pressure [3]: 129.90 ± 23.86 mmHg
- contractive pressure, change ratio [3]: 0.93 ± 11.47
- diastolic pressure [3]: 71.78 ± 15.67 mmHg
- diastolic pressure, change ratio [3]: 4.78 ± 14.39
- heart rate [3]: 348.91 ± 52.11 beat/min
- heart rate, change ratio [3]: 5.97 ± 9.72
- left intraventricular pressure [3]: 129.67 ± 17.48 mmHg
- left intraventricular pressure, change ratio [3]: 1.22 ± 7.07
- mean arterial pressure [3]: 91.15 ± 17.95 mmHg
- mean arterial pressure, change ratio [3]: 2.91 ± 12.81
- change-rate of left intraventricular pressure MAX [4]: 5760.1 ± 1393.5 mmHg/s
- change-rate of left intraventricular pressure MAX, change ratio [4]: 7.1 ± 18.3
- change-rate of left intraventricular pressure, -MAX [4]: −4146.8 ± 820.5 mm/Hg/s
- change-rate of left intraventricular pressure, -MAX, change ratio [4]: −2.4 ± 10.2
- contractive pressure [4]: 135.97 ± 22.80 mmHg
- contractive pressure, change ratio [4]: 5.64 ± 8.91
- diastolic pressure [4]: 76.78 ± 14.34 mmHg
- diastolic pressure, change ratio [4]: 12.13 ± 9.39
- heart rate [4]: 365.43 ± 32.77 beat/min
- heart rate, change ratio [4]: 12.05 ± 12.32
- left intraventricular pressure [4]: 134.39 ± 19.12 mmHg
- left intraventricular pressure, change ratio [4]: 4.73 ± 6.55
- mean arterial pressure [4]: 96.51 ± 16.69 mmHg
- mean arterial pressure, change ratio [4]: 8.95 ± 8.95
- change-rate of left intraventricular pressure MAX [5]: 5706.1 ± 1390.6 mmHg/s
- change-rate of left intraventricular pressure MAX, change ratio [5]: 7.6 ± 26.1
- change-rate of left intraventricular pressure, -MAX [5]: −4156.0 ± 947.7 mm/Hg/s
- change-rate of left intraventricular pressure, -MAX, change ratio [5]: −2.2 ± 15.9
- contractive pressure [5]: 131.95 ± 25.10 mmHg
- contractive pressure, change ratio [5]: 2.56 ± 13.11
- diastolic pressure [5]: 74.71 ± 18.13 mmHg
- diastolic pressure, change ratio [5]: 8.47 ± 17.66
- heart rate [5]: 369.71 ± 35.54 beat/min
- heart rate, change ratio [5]: 13.31 ± 13.05
- left intraventricular pressure [5]: 130.91 ± 17.22 mmHg
- left intraventricular pressure, change ratio [5]: 2.39 ± 9.41
- mean arterial pressure [5]: 93.79 ± 20.11 mmHg
- mean arterial pressure, change ratio [5]: 5.62 ± 15.30
- change-rate of left intraventricular pressure MAX [6]: 5512.7 ± 1250.1 mmHg/s
- change-rate of left intraventricular pressure MAX, change ratio [6]: 3.6 ± 20.4
- change-rate of left intraventricular pressure, -MAX [6]: −3995.2 ± 837.9 mm/Hg/s
- change-rate of left intraventricular pressure, -MAX, change ratio [6]: −5.6 ± 14.3
- contractive pressure [6]: 128.62 ± 28.30 mmHg
- contractive pressure, change ratio [6]: −0.49 ± 12.28
- diastolic pressure [6]: 72.46 ± 20.46 mmHg
- diastolic pressure, change ratio [6]: 4.39 ± 16.80
- heart rate [6]: 360.36 ± 51.93 beat/min
- heart rate, change ratio [6]: 9.40 ± 6.30
- left intraventricular pressure [6]: 129.15 ± 18.53 mmHg
- left intraventricular pressure, change ratio [6]: 0.79 ± 7.76
- mean arterial pressure [6]: 91.18 ± 22.76 mmHg
- mean arterial pressure, change ratio [6]: 2.06 ± 14.37
- change-rate of left intraventricular pressure MAX [7]: 5380.2 ± 913.7 mmHg/s
- change-rate of left intraventricular pressure, -MAX [7]: −4246.1 ± 669.3 mm/Hg/s
- contractive pressure [7]: 129.06 ± 22.13 mmHg
- diastolic pressure [7]: 68.47 ± 11.97 mmHg
- heart rate [7]: 329.43 ± 43.77 beat/min
- left intraventricular pressure [7]: 128.68 ± 20.18 mmHg
- mean arterial pressure [7]: 88.67 ± 14.74 mmHg
- effect on the heart rate (in words) (4.5 mg/kg, 9 mg/kg and 18 mg/kg doses): no significant effects
- −dp/dt (in words) (9 mg/kg and 18 mg/kg, significant at 60 and 120 min): exhibited a decrease tendency
- change-rate of left intraventricular pressure MAX [8]: 5388.9 ± 1187.0 mmHg/s
- change-rate of left intraventricular pressure MAX, change ratio [8]: −0.7 ± 6.7
- change-rate of left intraventricular pressure, -MAX [8]: −3908.5 ± 1013.0 mm/Hg/s
- change-rate of left intraventricular pressure, -MAX, change ratio [8]: 0.0 ± 11.2
- contractive pressure [8]: 131.10 ± 24.38 mmHg
- contractive pressure, change ratio [8]: −1.14 ± 6.68
- diastolic pressure [8]: 68.02 ± 18.77 mmHg
- diastolic pressure, change ratio [8]: −2.47 ± 10.80
- heart rate [8]: 374.04 ± 47.60 beat/min
- heart rate, change ratio [8]: 0.28 ± 7.83
- left intraventricular pressure [8]: 128.87 ± 25.63 mmHg
- left intraventricular pressure, change ratio [8]: −0.03 ± 8.26
- mean arterial pressure [8]: 89.05 ± 20.26 mmHg
- mean arterial pressure, change ratio [8]: −1.79 ± 8.69
- change-rate of left intraventricular pressure MAX [9]: 5321.6 ± 1133.0 mmHg/s
- change-rate of left intraventricular pressure MAX, change ratio [9]: −1.6 ± 7.4
- change-rate of left intraventricular pressure, -MAX [9]: −3792.8 ± 979.5 mm/Hg/s
- change-rate of left intraventricular pressure, -MAX, change ratio [9]: −2.9 ± 10.2
- contractive pressure [9]: 127.85 ± 23.92 mmHg
- contractive pressure, change ratio [9]: −3.57 ± 7.14
- diastolic pressure [9]: 66.18 ± 19.00 mmHg
- diastolic pressure, change ratio [9]: −5.33 ± 9.64
- heart rate [9]: 374.93 ± 47.51 beat/min
- heart rate, change ratio [9]: 0.48 ± 7.36
- left intraventricular pressure [9]: 127.06 ± 25.57 mmHg
- left intraventricular pressure, change ratio [9]: −1.37 ± 9.10
- mean arterial pressure [9]: 86.74 ± 20.25 mmHg
- mean arterial pressure, change ratio [9]: −4.42 ± 8.30
- change-rate of left intraventricular pressure MAX [10]: 5179.1 ± 1270.9 mmHg/s
- change-rate of left intraventricular pressure MAX, change ratio [10]: −5.0 ± 7.8
- change-rate of left intraventricular pressure, -MAX [10]: −3696.8 ± 997.3 mm/Hg/s
- change-rate of left intraventricular pressure, -MAX, change ratio [10]: −5.5 ± 10.8
- contractive pressure [10]: 122.58 ± 23.46 mmHg
- contractive pressure, change ratio [10]: −7.38 ± 8.66
- diastolic pressure [10]: 62.90 ± 17.46 mmHg
- diastolic pressure, change ratio [10]: −9.50 ± 10.75
- heart rate [10]: 361.94 ± 43.56 beat/min
- heart rate, change ratio [10]: −3.00 ± 5.83
- left intraventricular pressure [10]: 123.59 ± 25.06 mmHg
- left intraventricular pressure, change ratio [10]: −4.07 ± 8.57
- mean arterial pressure [10]: 82.79 ± 18.98 mmHg
- mean arterial pressure, change ratio [10]: −8.42 ± 9.56
- change-rate of left intraventricular pressure MAX [11]: 4966.9 ± 1297.4 mmHg/s
- change-rate of left intraventricular pressure MAX, change ratio [11]: −9.2 ± 10.0
- change-rate of left intraventricular pressure, -MAX [11]: −3569.5 ± 857.8 mm/Hg/s
- change-rate of left intraventricular pressure, -MAX, change ratio [11]: −8.3 ± 10.2
- contractive pressure [11]: 115.46 ± 23.90 mmHg
